How the values were obtained:
[1] = tested on: PPAR-dependent gene transcription in small intestine epithelial cell line IEC-6; test: Test on PPAR-dependent gene transcription activation (PPAR-Luc reporter), IEC-6; type: cell-based; settings: IEC-6, test concentration 10 μM, 24 hours
Procedure: (§1) The small intestine epithelial cell line IEC-6 and human hepatic cell line HepG2 were inoculated on a 12 well plate and cultured in DMEM (5% FCS) for 24 hours. A DNA chain containing PPAR responsive element (underlined portion) ([…]), a SV40 promoter gene, a PPAR reporter plasmid (PPAR-Luc) containing firefly luciferase gene, and a control plasmid having thymidine kinase promoter gene linked on the upstream of renilla luciferase gene were introduced simultaneously by using a transfection reagent (“Superfect transfection reagent”, product of Promega Corporation) each in an amount of 0.5 μg/well. The culture broth was then replaced with a DMEM (—FCS) medium containing a test substance, followed by incubation for further 24 hours. After washing with PBS, the cells were lysed using dual luciferase assay system (product of Promega Corporation). To the resulting lysate, a substrate solution containing luciferin was added and firefly and renilla luciferase activities were measured by a luminometer. In this test system, a PPAR-dependent gene transcriptional activator was searched for by measuring the transcriptional activity (luciferase activity of PPAR-dependent gene. It is to be noted that the PPAR-dependent gene transcriptional activity (luciferase activity) was defined as described below. PPAR-dependent gene transcriptional activity (luciferase activity)=(firefly luciferase activity by PPAR-Luc)/(renilla luciferase activity by TK-Luc)
(§2) In Table 8, PPAR-dependent gene transcription activating capacity of each test substance in IEC-6 and HepG2 cell lines is shown. In this table, PPAR-dependent transcriptional activity by the control is set at 100 and activity relative to it is indicated. As a positive control, fenofibrate was employed.

[2] = tested on: PPAR-dependent gene transcription in human hepatic cell line HepG2; test: Test on PPAR-dependent gene transcription activation (PPAR-Luc reporter), HepG2; type: cell-based; settings: HepG2, test concentration 10 μM, 24 hours
Procedure: as §1, §2

Compound	PPAR-dependent transcriptional activity (luciferase activity) relative to control set at 100 [1]	PPAR-dependent transcriptional activity (luciferase activity) relative to control set at 100 [2]
Catechin	152	149
O=C(O[C@@H]1Cc2c(O)cc(O)cc2O[C@@H]1c1cc(O)c(O)c(O)c1)c1cc(O)c(O)c(O)c1 [Epigallocatechin gallate]	184	172
O=C(O[C@@H]1Cc2c(O)cc(O)cc2O[C@@H]1c1ccc(O)c(O)c1)c1cc(O)c(O)c(O)c1 [Epicatechin gallate]	178	166
Oc1cc(O)c2c(c1)O[C@H](c1ccc(O)c(O)c1)[C@H](O)C2 [Epicatechin]	158	150

Reference: patent publication US7968139B2, “Packaged beverages” (Kao Corporation, priority 2000, dated 2011)
